This note sets out measurements from patent US20250302343A1, “AN ELECTRODE ARRAY FOR MEASURING THE PH OF ANIMAL TISSUES, A PROBE […] AN ARRAY, AND AN ASSEMBLY COMPRISING SAID PROBE” (QUANTUM I[…]. Z O.O., priority 2022, published 2025).

Entries after “also recorded” stand apart in the source; their conditions may differ.

For this data set the following is noted: electrodes comprising the ionic liquid in the reference electrode membrane; ISO 10993-5:2009 (E) and ISO 10993-12:2021 (E). The procedure: An evaluation of the acute cytotoxicity of the reference electrode components was performed.
Cytotoxicity-based biocompatibility tests were performed according to the procedures of ISO 10993-5:2009 (E) and ISO 10993-12:2021 (E) standards.
With `CCCCn1cc[n+](C)c1.F[P-](F)(F)(F)(F)F` [1-butyl-3-methylimidazolium hexafluorophosphate], the acute cytotoxicity entry was “no significant toxicity”.
As to choline phosphate, the acute cytotoxicity entry is “no significant toxicity”.
For `CC(=O)[O-].CCCCn1cc[n+](C)c1` [1-butyl-3-methylimidazolium acetate], the acute cytotoxicity result is reported as “no significant toxicity”.
Turning to `CCCCn1cc[n+](C)c1.[Cl-]` [1-butyl-3-methylimidazolium chloride], the acute cytotoxicity result is given as “no significant toxicity”.
For the compound choline acetate, the acute cytotoxicity result is listed as “no significant toxicity”.
As to “1-ethyl-3-methylimidazolium bis(trifluoromethyl sulfonyl)imide”, the acute cytotoxicity result was “no significant toxicity; also recorded: lowest cytotoxicity”.
